Source: patent US12668770B2 (priority 2017, dated 2026)

Assays:
[1] = system: ΔNRT strain (NRT gene-disrupted strain); type: cell-based, Nannochloropsis oculata; design: key to viability, ΔNRT strain: −: Not grown; +: Suppressed in growth, (somewhat) dye fading; ++: Suppressed in growth; +++: Fully grown
[2] = system: WT strain of Nannochloropsis oculata NIES-2145; type: cell-based; design: key to viability, WT strain: −: Not grown; +: Suppressed in growth, (somewhat) dye fading; ++: Suppressed in growth; +++: Fully grown
[3] = system: ΔNR strain (NR gene-disrupted strain); type: cell-based, Nannochloropsis oculata; design: key to viability, ΔNR strain: −: Not grown; +: Suppressed in growth, (somewhat) dye fading; ++: Suppressed in growth; +++: Fully grown
[4] = system: ΔNRTΔNR strain (NRT-NR gene-disrupted strain); type: cell-based, Nannochloropsis oculata; design: key to viability, ΔNRTΔNR strain: −: Not grown; +: Suppressed in growth, (somewhat) dye fading; ++: Suppressed in growth; +++: Fully grown

## [K+].[O-][Cl+2]([O-])[O-] [KClO3, potassium chlorate]
[1]
  growth of ΔNRT strain (Table 2): growth was confirmed
  growth of ΔNRT strain on chloric acid-containing agar medium (FIG. 7): growth was also confirmed
  viability, ΔNRT strain: − and ++
[2]
  growth of WT strain on chloric acid-containing agar medium (FIG. 7): killed
  viability, WT strain: −
[3]
  growth of ΔNR strain on chloric acid-containing agar medium (FIG. 7): growth was unable to be confirmed
  viability, ΔNR strain: −
[4]
  growth of ΔNRTΔNR strain (Table 2): growth was able to be achieved
  growth of ΔNRTΔNR strain on chloric acid-containing agar medium (FIG. 7): more favorable growth was observed
  viability, ΔNRTΔNR strain: + and +++ and ++
